The subject of series [1] is Schizophrenia Patients. The conditions noted are these: human, in vivo; for AIMS (dyskinesia), score after treatment / Barnes Scale (akathesia), score after treatment / EPS (Simpson-Angus Scale), score after treatment: 6 weeks. The text has this:
(§1) This study employed 37 patients who were diagnosed as having schizophrenia. All patients fulfilled the DSM-IV diagnosis of schizophrenia (APA, 1994, Diagnostic and Statistical Manual of Mental Disorders, Fourth Edition, Washington, D.C.). All of the patients also fulfilled the criteria of primary deficit syndrome, with a SANS score of more than 40 (Kirkpatrick et al., 1989, Psychiatry Research 30:119-123; Andreasen, 1983, Scales for the Assessment of Negative Symptoms (SANS), Iowa City, Iowa). All of the patients were poorly responsive to treatment by other antipsychotic drugs, and had been kept on a stable dose of an antipsychotic drug for at least 3 months prior to enrollment in this study.
(§2) Several scales were used to assess the severity of the disorder in each patient. At the beginning of the study (i.e., the baseline), the PANSS, SANS, and […] were used. Each scale also was completed at the end of each 2-week period throughout the study. These assessments were performed by a psychiatrist who was blind to the treatment assignment. The Wisconsin Card Sort Test was used to provide a cognitive rating of the patients; in general, schizophrenic patients perform poorly on this test. The Wisconsin Card Sort Test was administered only at the initiation of the study and at the end of the 6-week study. To measure side effects, the Simpson-Angus Scale was used to measure extrapyramidal symptoms (EPS; Simpson et al., 1970, Acta Psychiatrica Scandinavia Suppl. 212:11-19). The Abnormal Involuntary Movement Scale (AIMS) was used to measure dyskinesia (Simpson et al., 1970, Acta Psychiatrica Scandinavia Suppl. 212:11-19). The Barnes Scale was used to measure akathesia (Barnes, 1989, Brit. J. Psychiatry 154:672-676). The side effects of D-serine, D-alanine, and N-methylglycine treatments were assessed biweekly according to the UKU side effects rating scale (Scandinavian Society of Psychopharmacology Committee of Clinical Investigation: The UKU side effect rating scale: scale for the registration of unwanted effects of psychotropics. Acta. Psychiatr. Scand. 1987; Suppl. 334:81-94).
(§3) Using double-blind conditions, the patients were randomly assigned to receive placebo (fruit juice), D-serine (30 mg/kg/day), D-alanine (60-100 mg/kg/day), or N-methylglycine (30 mg/kg/day) once a day by mouth for a period of 6 weeks. As indicated by the results shown in Table 1, treatment with D-serine, D-alanine, or N-methylglycine improved the schizophrenic symptoms and cognitive deficit of the patients. […] These reductions in the negative and positive symptoms represented clinically significant improvement.

Series [2] deals with Schizophrenia Patients. The series can be described thus: Double-blind, placebo-controlled 6-week treatment of schizophrenia patients: clinical symptoms and cognition (SANS, PANSS, CGI, Wisconsin Card Sort Test). In kind it is in vivo, human. The conditions noted are these: for cognition, PANSS-cognitive subscale and Wisconsin Card Sort Test: 6 weeks of treatment; for WCST (Wisconsin Card Sort Test), change: initiation versus end of the 6-week study; for WCST (Wisconsin Card Sort Test), change / Cognitive symptoms (PANSS-cognitive subscale), change / Positive Symptoms (PANSS-positive subscale), change / reduction of the negative symptoms (on the SANS scale) / reduction of the positive symptoms (on the PANSS-positive subscale) / CGI, score after treatment: D-serine 30, D-alanine 60-100, N-methylglycine 30 mg/kg/day; for Negative Symptoms (SANS), change / Cognitive symptoms (PANSS-cognitive subscale), change / Positive Symptoms (PANSS-positive subscale), change / reduction of the negative symptoms (on the SANS scale) / reduction of the positive symptoms (on the PANSS-positive subscale): once a day by mouth for 6 weeks; for Negative Symptoms (SANS), change: D-serine 30 mg/kg/day, D-alanine 60-100 mg/kg/day, N-methylglycine 30 mg/kg/day, added to stable antipsychotic; for CGI, score after treatment: value after the arrow: after 6 weeks, once a day by mouth; for CGI, baseline score: value before the arrow: baseline of the treatment group.
Description: as §1, §2, §3

Structures are written as SMILES. Marks after values point to notes of the source that are not given here.

For `C[C@@H](N)C(=O)O` [D-alanine], in series [1], the “AIMS (dyskinesia), baseline score” value is reported as 0.5; the “Barnes Scale (akathesia), baseline score” value came out at 0.4; the “EPS (Simpson-Angus Scale), baseline score” value (from here on “EPS … baseline score”) was 3.1-->3.1; the “side effects, UKU scale” value is listed as “no side effects were noted”. For the same molecule, in series [1], the “significant side effects after treatment of schizophrenia patients” value (shortened to “significant side effects after treatment”) was “no significant side effects were detected”; the “tardive dyskinesia, extrapyramidal and akathesia symptoms” value (from here on “tardive dyskinesia”) is recorded as “no newly emergent tardive dyskinesia or worsening of extrapyramidal or akathesia symptoms”; the “AIMS (dyskinesia), score after treatment” value stood at 0.1; the “Barnes Scale (akathesia), score after treatment” value (“Barnes Scale (akathesia), score” for short) was found to be 0.6. The “EPS (Simpson-Angus Scale), score after treatment” value (“EPS (Simpson-Angus Scale), score” below) in series [1] is 3.1-->3.1. Also, in series [2], the “cognition, PANSS-cognitive subscale and Wisconsin Card Sort Test” value was “improved cognition”; the “WCST (Wisconsin Card Sort Test), change” value was “+0.5* category”; the “Negative Symptoms (SANS), change” value is −12%*; the “Cognitive symptoms (PANSS-cognitive subscale), change” value (“Cognitive symptoms … change” below) is on record as −11%*. For the same molecule, in series [2], the “Positive Symptoms (PANSS-positive subscale), change” value (shortened to “Positive Symptoms … change”) was −11%*; the “reduction of the negative symptoms (on the SANS scale)” value (from here on “reduction of the negative symptoms”) is 11%; the “reduction of the positive symptoms (on the PANSS-positive subscale)” value (shortened to “reduction of the positive symptoms”) is recorded as 12%; the “CGI, score after treatment” value is recorded as 2.8. The “CGI, baseline score” value in series [2] is on record as 3.9.

For the molecule `N[C@H](CO)C(=O)O` [D-serine], in series [1], the “AIMS (dyskinesia), baseline score” value was 0.3-->0.3; the “Barnes Scale (akathesia), baseline score” value is recorded as 0.4; the “EPS … baseline score” value is given as 1.4; the “side effects, UKU scale” value is reported as “no side effects were noted”. Also, in series [1], the “significant side effects after treatment” value was “no significant side effects were detected”; the “tardive dyskinesia” value was “no newly emergent tardive dyskinesia or worsening of extrapyramidal or akathesia symptoms”; the “AIMS (dyskinesia), score after treatment” value is 0.3-->0.3; the “Barnes Scale (akathesia), score” value is given as 0.8. The “EPS (Simpson-Angus Scale), score” value in series [1] came to 1.7. Besides, in series [2], the “cognition, PANSS-cognitive subscale and Wisconsin Card Sort Test” value was “improved cognition”; the “WCST (Wisconsin Card Sort Test), change” value was “+0.9 category”; the “Negative Symptoms (SANS), change” value is −21%*; the “Cognitive symptoms … change” value is listed as −12%*. In series [2], the “Positive Symptoms … change” value was −17%*; the “reduction of the negative symptoms” value was 21%; the “reduction of the positive symptoms” value was determined as 17%; the “CGI, score after treatment” value is on record as 2.6. In series [2], the “CGI, baseline score” value worked out at 4.8.

With `CNCC(=O)O` [N-methylglycine], in series [1], the “AIMS (dyskinesia), baseline score” value came to 0.4; the “Barnes Scale (akathesia), baseline score” value is 0.5; the “EPS … baseline score” value is recorded as 2.1-->2.1; the “side effects, UKU scale” value is given as “no side effects were noted”. Also, in series [1], the “significant side effects after treatment” value is “no significant side effects were detected”; the “tardive dyskinesia” value was “no newly emergent tardive dyskinesia or worsening of extrapyramidal or akathesia symptoms”; the “AIMS (dyskinesia), score after treatment” value came out at 0.3; the “Barnes Scale (akathesia), score” value was determined as 0.6. For the same molecule, in series [1], the “EPS (Simpson-Angus Scale), score” value is reported as 2.1-->2.1. Moreover, in series [2], the “cognition, PANSS-cognitive subscale and Wisconsin Card Sort Test” value was “improved cognition”; the “WCST (Wisconsin Card Sort Test), change” value is “+0.7* category”; the “Negative Symptoms (SANS), change” value was −20%*; the “Cognitive symptoms … change” value is −12%*. Further, in series [2], the “Positive Symptoms … change” value was −15%*; the “reduction of the negative symptoms” value is recorded as 20%; the “reduction of the positive symptoms” value stood at 15%; the “CGI, score after treatment” value turned out to be 2.7. For the same molecule, the “CGI, baseline score” value in series [2] came to 4.2.

These data come from patent US7704978B2, “Methods for treating neuropsychiatric disorders” (The General Hospital Corporation, priority 1998, dated 2010).
